Assay results: PubChem BioAssay AID1996
Values after ≈ are worked out from the molar mass of the structure shown.

Details: buffer; pH 7.4; 200.0 µM
`Fc1ccc(CNC(=S)NCc2ccc(F)cc2)cc1` gave a solubility kinetic of 6.4 µg/mL (≈ 21.9 µM). For `CC1=C(C(=O)OC(C)C)C(c2ccccc2)NC(=O)N1C` (configuration not stated), the solubility kinetic was greater than 43.3 µg/mL. Work on `Cc1ccc(C(=O)O/N=C(\N)c2ccccn2)cc1C` yielded a solubility kinetic of 2.6 µg/mL (≈ 9.65 µM). `N#Cc1ccc(Cn2c(-c3ccc(F)cc3)noc2=O)cc1` showed a solubility kinetic of 37.6 µg/mL (≈ 127 µM). For `CN(CC(=O)Nc1ccccc1C(=O)Nc1ccccc1)C1CCCCC1`, the solubility kinetic was 2.4 µg/mL (≈ 6.57 µM). `CC(=O)Nc1ccc(NC(=O)CCOc2ccccc2C)cc1` gave a solubility kinetic of 21.1 µg/mL (≈ 67.5 µM). With `COc1ccccc1NC1=C(Cl)C(=O)OC1OC(=O)c1ccco1` (configuration not stated) the solubility kinetic was 47.3 µg/mL (≈ 135 µM). Compound `COC(=O)COc1c(/C=C\c2nc(O)c([N+](=O)[O-])c(=O)[nH]2)cccc1OC` has a solubility kinetic greater than 56.6 µg/mL. `Cc1[nH]c2ccccc2c1SCC(=O)N1CCC(C)CC1` showed a solubility kinetic greater than 45.4 µg/mL. Work on `CC1CCCC(NC(=O)CN2C(=O)NC(Cc3c[nH]c4ccccc34)C2=O)C1C` (configuration not stated) yielded a solubility kinetic greater than 59.5 µg/mL. Work on `Cc1cc(NC(=O)COc2ccccc2)ccc1Cl` yielded a solubility kinetic of 1.9 µg/mL (≈ 6.89 µM). `CC(=O)Nc1ccc(N2C(=O)C3C4C=CC(CC4)C3C2=O)cc1` (configuration not stated) showed a solubility kinetic greater than 46.6 µg/mL. In the case of `O=C(Nc1ccc(Cl)cc1Cl)C1CCCO1` (configuration not stated), the solubility kinetic was greater than 39 µg/mL. Compound `O=[N+]([O-])c1ccc(-c2csc(N3CCCCCC3)n2)cc1` has a solubility kinetic of 0.6 µg/mL (≈ 1.98 µM). `CCc1ccccc1NC(=O)[C@@H]1CCC(=O)N1C1OC(=O)c2ccccc21` (some centres not stated) showed a solubility kinetic greater than 54.7 µg/mL. Compound `O=C(CCc1ccccc1)NC1C2CC3CC(C2)CC1C3` (configuration not stated) has a solubility kinetic of 34.6 µg/mL (≈ 122 µM). `Cc1ccc(/C=C(\C#N)C(=O)NC(C)C)o1` showed a solubility kinetic greater than 32.7 µg/mL. `COCC(C)N1C(=O)Cc2c1nc(N)c1c(N)nc(N3CCN(c4ccccc4F)CC3)c(C#N)c21` (configuration not stated) gave a solubility kinetic of 1.7 µg/mL (≈ 3.47 µM). Compound `CCc1ccccc1NC(=O)C1CCCN(c2nccc(C)n2)C1` (configuration not stated) has a solubility kinetic of 3.4 µg/mL (≈ 10.5 µM). Work on `O=C(COc1cccc2c1CCNC2=O)Nc1ccc(F)cc1` yielded a solubility kinetic greater than 47.1 µg/mL. For `CC(NC(=S)NC(=O)c1cccs1)c1ccccc1` (configuration not stated), the solubility kinetic was 8.2 µg/mL (≈ 28.2 µM). For `O=C(NC1CCCCC1)c1ccc2[nH]c(=O)c(=O)[nH]c2c1`, the solubility kinetic was greater than 43.1 µg/mL. With `CCc1ccc(NC2=CC(=O)CC(C)(C)C2)cc1` the solubility kinetic was 16.1 µg/mL (≈ 66.2 µM). In the case of `COc1ccc(OCC(=O)Nc2ccc3c(c2)n(C)c(=O)n3C)cc1`, the solubility kinetic was 48.2 µg/mL (≈ 141 µM). For `Cc1ccc(O)c(NC(=S)NC(=O)/C=C/c2ccccc2)c1`, the solubility kinetic was less than 0.3 µg/mL. Compound `O=C(CSc1ncccn1)Nc1cccc2ccccc12` has a solubility kinetic greater than 44.3 µg/mL. With `CC(=O)N1CCC(C(=O)Nc2cc(C)cc(C)c2)CC1` the solubility kinetic was greater than 41.2 µg/mL. `O=C(NCCC1=CCCCC1)C1CCN(S(=O)(=O)N2CCCC2)CC1` gave a solubility kinetic of 50.7 µg/mL (≈ 137 µM). For `CN(CC(=O)NCCc1ccc(F)cc1)Cc1ccccc1`, the solubility kinetic was 38.7 µg/mL (≈ 129 µM). `Cc1ccccc1OCC(O)CN(CCO)Cc1ccccc1.Cl` (configuration not stated) showed a solubility kinetic of 40.4 µg/mL. With `CCc1nc2cc(Cl)c(Cl)cc2nc1CC` the solubility kinetic was less than 0.3 µg/mL. In the case of `CCCSc1nc2sc3c(c2c(=O)n1CC)CC(C)(C)OC3`, the solubility kinetic was less than 0.4 µg/mL. Compound `CCOP(=O)(OCC)C(O)c1ccc(N(C)C)cc1` (configuration not stated) has a solubility kinetic greater than 43.1 µg/mL. Work on `CCOc1ccc(C2NC(=O)c3ccccc3O2)cc1OCC` (configuration not stated) yielded a solubility kinetic of 13.8 µg/mL (≈ 44 µM). In the case of `CO/N=C/C(c1ccc(Cl)nc1)S(=O)(=O)c1ccccc1` (configuration not stated), the solubility kinetic was greater than 48.7 µg/mL. Work on `CSc1ncccc1C(=O)NCCc1ccccc1` yielded a solubility kinetic of 37.2 µg/mL (≈ 137 µM). `CCNc1nc(OC)nc(N(OC)S(=O)(=O)c2ccc(C)cc2)n1` showed a solubility kinetic greater than 53 µg/mL. For `Cc1ccc(-c2csc(NC(=O)c3c(C)noc3C)n2)cc1C`, the solubility kinetic was 1.7 µg/mL (≈ 5.19 µM). With `CCOc1ccc(NC(=O)CN(C)C(=O)c2ccc(C)o2)cc1OCC` the solubility kinetic was 52.5 µg/mL (≈ 146 µM). Work on `Cc1cccc(C(=O)NCC(=O)N2CC(=O)Nc3ccccc32)c1` yielded a solubility kinetic greater than 48.5 µg/mL. With `CC(C)CC(=O)Nc1cc2c3c(c1)CCN3C(=O)CC2` the solubility kinetic was greater than 40.9 µg/mL. Work on `CN1CCN(CCCNc2c(C=O)c(=O)[nH]c3ccccc23)CC1` yielded a solubility kinetic of 34.1 µg/mL (≈ 104 µM). Work on `Cc1cccc(NC(=O)CCCn2c(=S)[nH]c3ccccc3c2=O)c1` yielded a solubility kinetic of 0.3 µg/mL (≈ 0.849 µM). For `O=C(CSc1ncnc2scc(-c3ccccc3)c12)NC1CCS(=O)(=O)C1` (configuration not stated), the solubility kinetic was 58.6 µg/mL (≈ 140 µM). Compound `CSc1nc2ccc(NC(=O)c3ccccn3)cc2s1` has a solubility kinetic of 0.5 µg/mL (≈ 1.66 µM). Compound `Cc1ccc(C(=O)O)cc1NC(=S)NCCc1ccccc1` has a solubility kinetic greater than 47.2 µg/mL. Work on `NC(=S)NC1CC2CC1C1C=CCC21` (configuration not stated) yielded a solubility kinetic greater than 31.2 µg/mL.
